# Data from paper PMC5955414, “PKD1 is a potential biomarker and therapeutic target in triple-negative breast cancer” (Oncotarget, 2018).
# Experiments:
# PKD3 [1] = molecular target: T1, PKD3 (Homo sapiens, UniProt O94806); set-up: method as in PMID 20497126, PMID 20442301, PMID 18829454, PMID 21617763, PMID 20444281; conditions: cited from earlier work
# T1 sequence (O94806 1-890): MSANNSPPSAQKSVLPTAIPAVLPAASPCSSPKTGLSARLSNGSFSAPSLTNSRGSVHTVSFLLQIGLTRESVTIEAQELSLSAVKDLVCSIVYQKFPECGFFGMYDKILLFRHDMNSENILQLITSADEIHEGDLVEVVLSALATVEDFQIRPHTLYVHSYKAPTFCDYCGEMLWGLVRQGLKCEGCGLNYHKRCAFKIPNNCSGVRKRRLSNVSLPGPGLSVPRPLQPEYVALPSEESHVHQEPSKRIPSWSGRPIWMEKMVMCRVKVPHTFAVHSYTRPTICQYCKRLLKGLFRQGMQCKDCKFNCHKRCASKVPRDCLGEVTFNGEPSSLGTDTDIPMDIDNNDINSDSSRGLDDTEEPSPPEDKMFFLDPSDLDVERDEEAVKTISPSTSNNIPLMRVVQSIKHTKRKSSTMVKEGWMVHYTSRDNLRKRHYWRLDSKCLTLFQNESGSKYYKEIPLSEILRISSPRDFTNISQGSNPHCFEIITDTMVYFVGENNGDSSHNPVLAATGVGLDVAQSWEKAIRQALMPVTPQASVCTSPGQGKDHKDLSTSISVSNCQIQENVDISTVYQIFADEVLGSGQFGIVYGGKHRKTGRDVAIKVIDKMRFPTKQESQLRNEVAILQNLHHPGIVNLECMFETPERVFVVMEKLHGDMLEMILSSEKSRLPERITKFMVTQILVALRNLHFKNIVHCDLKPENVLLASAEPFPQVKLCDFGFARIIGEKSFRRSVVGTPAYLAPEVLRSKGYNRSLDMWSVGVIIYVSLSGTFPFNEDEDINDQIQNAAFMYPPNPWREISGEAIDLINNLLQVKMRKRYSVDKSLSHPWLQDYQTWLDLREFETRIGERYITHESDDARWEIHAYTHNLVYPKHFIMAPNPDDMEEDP
# PKD3 [2] = molecular target: T1, PKD3; assay: In vitro kinase inhibitory activity, PKD3; format: biochemical; conditions: AB9275: at concentrations inhibiting PKD1; compared with PKD1
# Procedure: (§1) Supplementary Figure 5: Specificity of the AB9275 PKD1 inhibitor. (A) Comparison of in vitro kinase inhibitory activities
# (§2) between AB9275 and different PKD1 inhibitors.
# (§3) CRT0066101. Other IC50s were obtained from the literature (as indicated). (B) Kinome selectivity profile of the AB9275 compound. The
# (§4) CA). AB9275 was screened at 1 μM.
# [3] = test system: MCF7 chemoresistant xenografts; set-up: method as in PMID 26895471; conditions: cited from earlier work
# PKCβ [4] = molecular target: T2, PKCβ (Homo sapiens, UniProt P05771); assay: In vitro kinase inhibitory activity, PKCβ; format: biochemical; conditions: AB9275: at concentrations inhibiting PKD1
# T2 sequence (P05771 whole entry, species assumed): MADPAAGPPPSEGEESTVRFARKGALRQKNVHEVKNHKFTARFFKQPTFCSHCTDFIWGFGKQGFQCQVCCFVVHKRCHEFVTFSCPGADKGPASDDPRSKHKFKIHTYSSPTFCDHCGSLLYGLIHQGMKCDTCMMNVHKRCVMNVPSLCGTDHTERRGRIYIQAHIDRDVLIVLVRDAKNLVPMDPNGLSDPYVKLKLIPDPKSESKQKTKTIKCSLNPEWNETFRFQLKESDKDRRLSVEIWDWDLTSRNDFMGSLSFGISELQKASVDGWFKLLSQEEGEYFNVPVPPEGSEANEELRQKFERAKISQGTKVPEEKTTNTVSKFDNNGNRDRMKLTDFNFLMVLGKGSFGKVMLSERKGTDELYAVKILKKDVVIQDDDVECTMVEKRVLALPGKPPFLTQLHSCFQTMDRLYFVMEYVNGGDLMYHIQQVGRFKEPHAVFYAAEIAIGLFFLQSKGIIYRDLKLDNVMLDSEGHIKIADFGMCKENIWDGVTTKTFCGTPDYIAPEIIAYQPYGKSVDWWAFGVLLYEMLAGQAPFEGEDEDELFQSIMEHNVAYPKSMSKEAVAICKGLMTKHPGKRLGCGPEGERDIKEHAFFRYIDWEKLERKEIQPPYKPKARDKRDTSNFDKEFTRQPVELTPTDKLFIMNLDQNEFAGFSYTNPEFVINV
# Procedure: as §1, §2, §3, §4
# PKCα [5] = molecular target: T3, PKCα (Homo sapiens, UniProt P17252); set-up: method as in PMID 20497126, PMID 20442301, PMID 18829454, PMID 21617763, PMID 20444281; conditions: cited from earlier work
# PKCα [6] = molecular target: T3, PKCα; assay: In vitro kinase inhibitory activity, PKCα; format: biochemical; conditions: AB9275: at concentrations inhibiting PKD1
# Procedure: as §1, §2, §3, §4
# PKCβ [7] = molecular target: T2, PKCβ; set-up: method as in PMID 20497126, PMID 20442301, PMID 18829454, PMID 21617763, PMID 20444281; conditions: cited from earlier work
compound,measurement,setting,value
CC[C@@H](N)CNc1ccnc(-c2cc(-c3cnn(C)c3)ccc2O)n1.Cl.Cl [CRT0066101],Inhibition of PKD3 relative to PKD1 (literature),PKD3 [1],similarly inhibit PKD1 and PKD3
same,Inhibition of PKD3 in vitro,PKD3 [2],more potent against PKD3
same,Tumor growth of MCF7 chemoresistant xenografts in vivo,[3],able to inhibit tumor growth
CRT5,Inhibition of PKD3 relative to PKD1 (literature),PKD3 [1],similarly inhibit PKD1 and PKD3
Cn1c2ccccc2c2c3c(c4c5ccccc5n(CCC#N)c4c21)CNC3=O [Gö6976],Inhibition of PKCβ in vitro,PKCβ [4],strongly inhibited
same,Inhibition of PKCα (literature),PKCα [5],also inhibits
same,Inhibition of PKCα in vitro,PKCα [6],strongly inhibited
same,Inhibition of PKCβ (literature),PKCβ [7],also inhibits
O=C1NCCCc2c1oc1ccc(O)cc21 [CID755673],Inhibition of PKD3 relative to PKD1 (literature),PKD3 [1],similarly inhibit PKD1 and PKD3
